Read-outs that look alike come from different tables or passages of the source.
What was measured:
[1] = system: PAR formation in HCC1937 cell lines; assay: Immunofluorescence analysis of PAR, H2O2-treated HCC1937; format: cell-based, human
Procedure: (§1) The cells were seeded in 6-well plates with 1 × 10^5 cells per well and incubated for 24 h. […] Cells were fixed with addition of 4% paraformaldehyde, and immunostaining blocking solution was added at room temperature for 20 min. […] Then, a […] staining solution (DAPI) was added for staining, the […] staining solution was aspirated, and the well washed 3 times with washing solution. Photographs were taken through a Leica SP8 Laser confocal microscope.

[2] = system: γH2AX in HCT-15 cell lines; assay: Immunofluorescence analysis of γH2AX, HCT-15; format: cell-based, human; conditions: HCT-15, 10 μM
Procedure: as §1

[3] = system: Caspase-3, cleaved Caspase-3, Bax, Bcl-2 in HCC1937 cell lines; assay: Western blot of apoptosis-related proteins, HCC1937; format: cell-based, human; conditions: HCC1937, 1.25-20 μM, 48 h
Procedure: (§2) Subsequently, the cells were lysed with RIPA lysis buffer and protein samples were prepared. Denatured proteins were separated by 10% SDS-PAGE electrophoresis and transferred to a PVDF membrane. The membrane was blocked with 5% blocking solution for 2 h. The membrane was incubated overnight at 4 °C with specific primary antibody. Then, the membrane was rinsed three times with TBST, secondary antibody was added, and the membrane was incubated at room temperature for 2 h. Finally, the target protein was detected by the ECL detection system. The relative expression was quantified using Image J (National Institutes of Health).

[4] = system: PAR formation in HCT-15 cell lines; assay: Immunofluorescence analysis of PAR, H2O2-treated HCT-15; format: cell-based, human
Procedure: as §1

[5] = system: γH2AX in HCC1937 cell lines; assay: Immunofluorescence analysis of γH2AX, HCC1937; format: cell-based, human; conditions: HCC1937, 10 μM
Procedure: as §1

LO2 = assay: MTT cytotoxicity assay, LO2 normal hepatocytes; format: cell-based; conditions: L02, 72 h; 3 days, human normal hepatocytes
Procedure: (§3) After treatment with target compounds at the different concentrations, MTT was added and the cells were incubated for another 4 h. The IC50 values of the selected compounds were evaluated by the same method. The cells were treated with compounds at different concentrations. The OD values were detected using a microplate reader at 570 nm.

[6] = system: HCT-15 nude mouse xenograft model; assay: In vivo anti-tumor study
Procedure: The tumor volume and mouse body weight were recorded, and the corresponding tissues were analyzed.
All experimental procedures were performed according to the National Institutes of Health guidelines for the use of laboratory animals, and an application was made to the Institutional Animal Care and Use Committee, Shandong Second Medical University, which was approved. […] When the tumor volume reached about 80–150 mm^3, the mice were randomly divided into three groups (the control group, and different concentration administration group) and administered for 14 consecutive days, while the tumor volume was measured once every two days and the body weight of the mice was recorded. At the end stage, mice were killed by neck-breaking and tumor tissues were removed. All the photographs were taken through a Leica SP8 Laser confocal microscope.

HCC1937 cell lines [7] = assay: Mitochondrial membrane potential assay (JC-1), HCC1937; format: cell-based, human
From the text: (§4) Cell culture methods were the same as for the cell apoptosis assay.
(§5) The experimental operation was the same as ROS, only replacing the DCFH-DA probe with the JC-1 probe.

[8] = system: Caspase-3, cleaved Caspase-3, Bax, Bcl-2 in HCT-15 cell lines; assay: Western blot of apoptosis-related proteins, HCT-15; format: cell-based, human; conditions: HCT-15, 1.25-20 μM, 48 h
Procedure: as §2

[9] = Acute toxicity study in mice; format: in vivo, mouse; conditions: single intraperitoneal injection 800 mg/kg, monitored 14 days
Procedure: The mice were administered a single intraperitoneal injection dose of 800 mg/kg and were constantly monitored for 14 days.

HCC1937 cell lines [10] = assay: Cell apoptosis assay (Annexin V-FITC/PI flow cytometry), HCC1937; format: cell-based, human; conditions: HCC1937, 20 μM, 48 h
Procedure: (§6) The cells were seeded in 6-well plates with 1 × 10^5 cells per well and incubated for 24 h. […] The cells were digested, collected, and resuspended in the binding buffer. After adding 5 μL of Annexin V-FITC and 10 μL of propidium iodide (PI), the cells were incubated for 30 min away from light; this was followed by detection using flow cytometry (Beckman Coulter).

HCT-15 cell lines [11] = assay: Mitochondrial membrane potential assay (JC-1), HCT-15; format: cell-based, human
From the text: as §4, §5

MDA-MB-231 = assay: MTT cytotoxicity assay, MDA-MB-231; format: cell-based; conditions: Homo sapiens
Procedure: as §3

HCC1937 cell lines [12] = assay: MTT cytotoxicity assay, HCC1937; format: cell-based, human; conditions: Homo sapiens, HCC1937
Procedure: as §3

HCT-15 cell lines [13] = assay: Cell apoptosis assay (Annexin V-FITC/PI flow cytometry), HCT-15; format: cell-based, human; conditions: HCT-15, 20 μM, 48 h
Procedure: as §6

NCM460 = assay: MTT cytotoxicity assay, NCM460 normal colonic epithelial cells; format: cell-based; conditions: NCM460, 72 h; 3 days, human normal colonic epithelial cells
Procedure: as §3

HCT-15 cell lines [14] = assay: MTT cytotoxicity assay, HCT-15; format: cell-based, human; conditions: Homo sapiens, HCT-15
Procedure: as §3

Question: With `Cc1ccc(Cl)cc1NC(=O)N1C2CC1CN(Cc1nc3ccccc3c(=O)[nH]1)C2` [B1, N-(5-chloro-2-methylphenyl)-3-((4-oxo-3,4-dihydroquinazolin-2-yl)methyl)-3,6-diazabicyclo[3.1.1]heptane-6-carboxamide] as the compound, how does the “PAR aggregation (green fluorescence)” value ([1]; H2O2-treated HCC1937, 1.25 μM) read?
Answer: green fluorescence obviously weakened

Question: And the “PAR aggregation (green fluorescence)” value ([1]; H2O2-treated HCC1937, 5 μM)?
Answer: green fluorescence almost disappeared

Question: What about the “expression of γH2AX” value [2] of the same compound?
Answer: significantly increased

Question: What about the Bax expression [3] of the same compound?
Answer: considerably increased Bax expression

Question: What about the Bcl-2 expression [3] of the same compound?
Answer: decreased Bcl-2 expression

Question: And the Caspase-3 activation [3]?
Answer: activated Caspase-3

Question: What about the “PAR aggregation (green fluorescence)” value ([4]; H2O2-treated HCT-15, 1.25 μM) of the same compound?
Answer: green fluorescence obviously weakened

Question: What about the “PAR aggregation (green fluorescence)” value ([4]; H2O2-treated HCT-15, 5 μM) of the same compound?
Answer: green fluorescence almost disappeared

Question: And the “expression of γH2AX” value [5]?
Answer: significantly increased

Question: And the IC50 (LO2)?
Answer: > 100000 nM

Question: And the “tumor cell morphology (H&E)” value ([6]; 10 mg/kg intraperitoneally once daily for 14 days)?
Answer: irregular morphological alterations and severe vacuolization

Question: What about the “xenograft tumor growth (tumor volume and weight)” value ([6]; 25 mg/kg intraperitoneally once daily for 14 days) of the same compound?
Answer: significantly inhibited xenograft tumor growth

Question: What about the “xenograft tumor growth (tumor volume and weight)” value ([6]; 50 mg/kg intraperitoneally once daily for 14 days) of the same compound?
Answer: significantly inhibited xenograft tumor growth

Question: And the “mitochondrial membrane potential (JC-1 fluorescence)” value (“mitochondrial membrane potential” for short) (HCC1937 cell lines [7]; HCC1937, 5 μM)?
Answer: green fluorescence began to change significantly

Question: And the “mitochondrial membrane potential” value (HCC1937 cell lines [7]; HCC1937, 20 μM)?
Answer: the intensity of red fluorescence was hardly visible

Question: And the Bax expression [8]?
Answer: considerably increased Bax expression

Question: What about the Bcl-2 expression [8] of the same compound?
Answer: decreased Bcl-2 expression

Question: What about the Caspase-3 activation [8] of the same compound?
Answer: activated Caspase-3

Question: What about the “body weight, acute toxicity” value [9] of the same compound?
Answer: no significant reduction in body weight

Question: And the “major organs (H&E), acute toxicity” value [9]?
Answer: no significant changes in heart, liver, spleen, lung, or kidney

Question: What about the apoptosis rate (HCC1937 cell lines [10]) of the same compound?
Answer: 53.14%

Question: What about the “mitochondrial membrane potential” value (HCT-15 cell lines [11]; HCT-15, 5 μM) of the same compound?
Answer: green fluorescence began to change significantly

Question: And the “mitochondrial membrane potential” value (HCT-15 cell lines [11]; HCT-15, 20 μM)?
Answer: the intensity of red fluorescence was hardly visible

Question: What about the IC50 (MDA-MB-231; MDA-MB-231, 72 h, 3 days, read-out: IC50 MDA-MB-231 3-Days) of the same compound?
Answer: 11300 ± 1930 nM

Question: What about the IC50 (MDA-MB-231; MDA-MB-231, 7 days, read-out: IC50 MDA-MB-231 7-Days) of the same compound?
Answer: 1330 ± 510 nM

Question: And the IC50 (HCC1937 cell lines [12]; 72 h (3-Days) drug exposure, MTT, read-out: IC50 HCC1937)?
Answer: 3260 ± 380 nM

Question: What about the IC50 (HCC1937 cell lines [12]; 7 days drug treatment, read-out: IC50 HCC1937 7-Days) of the same compound?
Answer: 170 ± 40 nM

Question: And the apoptosis rate (HCT-15 cell lines [13])?
Answer: 73.58%

Question: What about the IC50 (NCM460) of the same compound?
Answer: > 100000 nM

Question: What about the IC50 (HCT-15 cell lines [14]; 72 h (3-Days) drug exposure, MTT, read-out: IC50 HCT-15) of the same compound?
Answer: 2890 ± 780 nM

Question: And the IC50 (HCT-15 cell lines [14]; 7 days drug treatment, read-out: IC50 HCT-15 7-Days)?
Answer: 130 ± 30 nM
